Inhibition and Activity data for 3 compounds are collected here from ChEMBL document CHEMBL4476871, “SULFAMIDE AND SULFAMATE INHIBITORS OF hHint1” (2018).

Test [1] concerns the target Adenosine 5'-monophosphoramidase HINT1 (Homo sapiens) (UniProt P49773). Kind of test: Inhibition of human N-terminal His6-tagged Hint1 expressed in Escherichia coli Rosetta 2 pLysS cells by fluorescence assay.
Test [2] relates to Mus musculus. Kind of test: Analgesic activity in ICR mouse model of spared nerve injury assessed as reduction in mechanical hypersensitivity at 1 nmol administered intrathecally prior to spared nerve injury by Von Frey test. The format is functional, organism-based.
Test [3] relates to Mus musculus. Kind of test: Analgesic activity in ICR mouse model of spared nerve injury assessed as reduction in mechanical hypersensitivity at 1 nmol administered intrathecally 7 days post spared nerve injury by Von Frey test. The test is classed as functional, organism-based.
Test [4] deals with Mus musculus. The experiment in a line: Analgesic activity in ICR mouse model of spared nerve injury assessed as reduction in mechanical hypersensitivity at 1 nmol administered intrathecally 7 days post spared nerve injury measured after 4 hrs by Von Frey test. The format is functional, organism-based.

Active and inactive are the calls of the source. No cut-off for these calls is given here.

Sequence of Adenosine 5'-monophosphoramidase HINT1 (Homo sapiens) (P49773 whole entry): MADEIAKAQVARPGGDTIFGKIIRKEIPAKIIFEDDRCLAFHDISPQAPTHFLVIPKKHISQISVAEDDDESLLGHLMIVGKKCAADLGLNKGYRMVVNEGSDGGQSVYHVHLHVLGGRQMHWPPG

Turning to `Nc1nc2c(ncn2[C@@H]2O[C@H](COC(=O)NCCc3c[nH]c4ccccc34)[C@@H](O)[C@H]2O)c(=O)[nH]1`, the inhibition result in test [1] was “Dose-dependent effect”. The outcome in test [2] and in test [3] was Active.

As for `O=C(CCc1c[nH]c2ccccc12)NS(=O)(=O)OC[C@H]1O[C@@H](n2cnc3c2ncn2ccnc32)[C@@H](O)C1O` (stereo partly specified), the outcome in test [2] was inactive. For the same compound, the result in test [4] was Active.

As for `Nc1ncnc2c1ncn2[C@@H]1O[C@H](CNS(=O)(=O)NC(=O)CCCC[C@@H]2SC[C@@H]3NC(=O)N[C@@H]32)[C@@H](O)[C@H]1O`, the inhibition entry in test [1] is “Dose-dependent effect”.
